The record followed here is the supplement of paper PMC10307832.

Common to all, as to assay: relative viability (nuclei count vs DMSO), 5 days (fraction); higher = more cells survive
Compound in test [1]: CC1=CN2C(=O)C=C(N=C2C(=C1)C(C)NC3=CC=CC=C3)N4CCOCC4 [TGX 221] + COc1cccc2cc(-c3nc([C@H]4CC[C@H](C(=O)O)CC4)n4ncnc(N)c34)[nH]c12 [OSI-027] (partner 0.5 µM)
Put shortly:
(§1)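 Lung cancer cell lines were seeded in 1536-well plates and dosed by pin tool the next day, with either a single drug or a fixed anchor-drug dose combined with five library-drug doses (not always all listed) spaced in √10 steps. Five days later, one step fixed the cells and stained their nuclei (final 0.05% Triton X-100, 1% formaldehyde, 1 ug/ml Hoechst), and nuclei were counted on 4× images. Relative viability is the nuclei count in treated wells divided by the count in vehicle wells, and each value is the median of duplicate plates.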

Compound in test [2]: C1=CC=C(C(=C1)C2=CC=C(C=C2)C3=CSC4=C3C(=C(C(=O)N4)C#N)O)O + Cc1nc(Nc2ncc(C(=O)Nc3c(C)cccc3Cl)s2)cc(N2CCN(CCO)CC2)n1 [Dasatinib] (partner 0.075 µM)
Put shortly: as §1

Compound in test [3]: O=C(CCCCCCNC(=O)c1cnc(N(c2ccccc2)c2ccccc2)nc1)NO [Ricolinostat] + Cc1nc(Nc2ncc(C(=O)Nc3c(C)cccc3Cl)s2)cc(N2CCN(CCO)CC2)n1 [Dasatinib] (partner 0.075 µM)
Put shortly:
as §1

Compound in test [4]: O=C(CCCCCCNC(=O)c1cnc(N(c2ccccc2)c2ccccc2)nc1)NO [Ricolinostat] + CCNC(=O)c1noc(-c2cc(C(C)C)c(O)cc2O)c1-c1ccc(CN2CCOCC2)cc1 [Luminespib] (partner 0.01 µM)
In a few lines: as §1

Compound in test [5]: C1=CC=C(C(=C1)C2=CC=C(C=C2)C3=CSC4=C3C(=C(C(=O)N4)C#N)O)O + NC(=O)Nc1cc(-c2cccc(F)c2)sc1C(=O)N[C@H]1CCCNC1 [AZD7762] (partner 0.2 µM)
In a few lines:
as §1

For the cell line NCI-H1792, the relative viability in test [1] (first compound 0.08 µM) was found to be 0.768; in test [1] (first compound 0.253 µM), 0.601; in test [1] (first compound 0.8 µM) it was 0.71; in test [1] (first compound 2.53 µM) it was 0.517; in test [1] (first compound 8 µM), 0.564; in test [2] (first compound 0.253 µM), 0.803. The relative viability in test [2] (first compound 2.53 µM) was found to be 0.722; in test [2] (first compound 8 µM), 0.508; in test [3] (first compound 0.253 µM), 0.829; in test [3] (first compound 0.8 µM), 0.718; in test [3] (first compound 2.53 µM), 0.882; in test [4] (first compound 0.08 µM), 0.297. The relative viability in test [4] (first compound 0.253 µM) was found to be 0.417; in test [4] (first compound 0.8 µM) it was 0.373; in test [4] (first compound 2.53 µM) it was 0.418; in test [5] (first compound 0.253 µM) it was 0.953; in test [5] (first compound 0.8 µM), 0.329; in test [5] (first compound 2.53 µM), 0.551. The relative viability in test [5] (first compound 8 µM) turned out to be 0.532.
